Results taken from US12653865B2, “Dual-agonist compound for both GLP-1 and GIP receptors and application thereof” (Jiangsu Hengrui Pharmaceuticals Co., Ltd., priority 2020, dated 2026).
*1 amine or outer side, *2 acyl side, *3 side chain or, on linkers, in order; H or OH if unused. Where a SMILES comes first, the peptide text is derived from it. Side-chain parts run from the residue outwards. [ ]: non-standard residue; d: D form. The star is where a group is joined. C20 diacid = O=C(O)CCCCCCCCCCCCCCCCCCC(=O)*; γGlu = O=C(O)[C@H](CCC(=O)[*:2])N[*:1]; AEEA = NCCOCCOCC(=O)O; Aib = CC(C)(N)C(=O)O

Columns and labels:
db/db mice = assay: Glucose metabolism level in db/db mice; assay type: in vivo, C57BL/KsJ-db/db mice
Experimental: Each administration group contained 10 db/db mice. According to the experimental design, tail vein blood was collected by needle pricking on days 0, 7, 14, 21 and 28 and determined for fasting blood glucose levels with a glucometer and glucose dipsticks, and the mice were fasted 6 h prior to the blood collection at each time point. Tail vein blood was collected by needle pricking on days 3, 10, 17, 24 and 27 and randomly determined for blood glucose levels with a glucometer. Finally, at the end of the experiment on day 28, all the animals in the administration groups were subjected to 2-5% isoflurane inhalation anesthesia, and 100 μL of EDTA-K2 anticoagulated whole blood was collected through the orbit of each mouse and used for the determination of glycated hemoglobin.

DIO mice = assay: Food intake ration of diet-induced obese mice; assay type: in vivo, C57BL/6 mice
Experimental: (§1) High-fat food-induced obese male C57BL/6 mice (weighing 35-55 g, aged 10-12 weeks, purchased from Shanghai Jiesijie Laboratory Animal Co., Ltd.) were tested. […] According to the experimental design, the body weight of each mouse was measured and recorded on day 0, day 3, day 6 and so on to day 27, the average body weight of each group of mice was calculated, and weight change curves were plotted by taking the body weight on the first day as the standard. At the end, the fat and other visceral organs of each part of the mice were taken out and weighed, and the viscera/brain ratio for fat in each part of each mouse was calculated. The effect of the drug on the fat was determined by comparing the change in the organ/brain ratio for fat of different parts of each group of mice.
The food intake ration of mice in each group was measured daily during the test.

diet-induced obese mice = assay: Body weight and fat mass in diet-induced obese mice; assay type: in vivo, C57BL/6 mice; conditions: for rate of change in body weight / viscera/brain ratio for fat mass, Epididymal fat / viscera/brain ratio for fat mass, Inguinal fat / viscera/brain ratio for fat mass, Mesenteric fat / viscera/brain ratio for fat mass, Perirenal fat / viscera/brain ratio for fat mass, Scapular fat / viscera/brain ratio for fat mass, Subcutaneous fat: DIO mice; for viscera/brain ratio for fat mass, Epididymal fat / viscera/brain ratio for fat mass, Inguinal fat / viscera/brain ratio for fat mass, Mesenteric fat / viscera/brain ratio for fat mass, Perirenal fat / viscera/brain ratio for fat mass, Scapular fat / viscera/brain ratio for fat mass, Subcutaneous fat: end of study
Experimental: as §1

CC[C@H](C)[C@H](NC(=O)[C@H](CCCCN)NC(=O)[C@H](CCC(=O)O)NC(=O)[C@H](CCCCNC(=O)COCCOCCNC(=O)COCCOCCNC(=O)CC[C@H](NC(=O)CCCCCCCCCCCCCCCCCCC(=O)O)C(=O)O)NC(=O)[C@H](Cc1ccc(O)cc1)NC(=O)[C@@H](NC(=O)[C@H](CO)NC(=O)[C@H](Cc1ccc(O)cc1)NC(=O)[C@H](CC(=O)O)NC(=O)[C@H](CO)NC(=O)[C@@H](NC(=O)[C@H](Cc1ccccc1)NC(=O)[C@@H](NC(=O)CNC(=O)[C@H](CCC(=O)O)NC(=O)C(C)(C)NC(=O)[C@@H](N)Cc1ccc(O)cc1)[C@@H](C)O)[C@@H](C)O)[C@@H](C)CC)C(=O)N[C@@H](C)C(=O)N[C@@H](C)C(=O)N[C@@H](CCC(N)=O)C(=O)N[C@@H](CCC(=O)O)C(=O)N[C@@H](Cc1ccccc1)C(=O)N[C@H](C(=O)N[C@@H](CC(N)=O)C(=O)N[C@@H](Cc1c[nH]c2ccccc12)C(=O)N[C@@H](CC(C)C)C(=O)N[C@@H](CC(C)C)C(=O)N[C@@H](C)C(=O)NCC(=O)NCC(=O)N1CCC[C@H]1C(=O)N[C@@H](CO)C(=O)N[C@@H](CO)C(=O)NCC(=O)N[C@@H](C)C(=O)N1CCC[C@H]1C(=O)N1CCC[C@H]1C(=O)N1CCC[C@H]1C(=O)N[C@@H](CO)C(N)=O)C(C)C [Compound 18#] (H-Y[Aib]EGTFTSDYSIYK([AEEA-AEEA-γGlu-C20 diacid])EKIAAQEFVNWLLAGGPSSGAPPPS-NH2)
Concentration of fasting blood glucose (db/db mice; 10 nmol/kg sc, Day 0): 14.77 ± 1.30 mmol/L
Concentration of random blood glucose (db/db mice; 10 nmol/kg sc, Day 0): 20.42 ± 1.56 mmol/L
Concentration of fasting blood glucose (db/db mice; 10 nmol/kg sc, Day 7): 6.05 ± 0.42 mmol/L
Concentration of random blood glucose (db/db mice; 10 nmol/kg sc, Day 10): 20.66 ± 1.48 mmol/L
Concentration of fasting blood glucose (db/db mice; 10 nmol/kg sc, Day 14): 6.30 ± 0.46 mmol/L
Concentration of random blood glucose (db/db mice; 10 nmol/kg sc, Day 17): 18.91 ± 1.33 mmol/L
Concentration of fasting blood glucose (db/db mice; 10 nmol/kg sc, Day 21): 7.89 ± 0.81 mmol/L
Concentration of random blood glucose (db/db mice; 10 nmol/kg sc, Day 24): 21.17 ± 2.07 mmol/L
Concentration of fasting blood glucose (db/db mice; 10 nmol/kg sc, Day 28): 9.41 ± 0.97 mmol/L
Glycated hemoglobin (db/db mice; 10 nmol/kg sc, day 28): 4.71 ± 0.23 %
Concentration of fasting blood glucose (db/db mice; 30 nmol/kg sc, Day 0): 14.13 ± 1.32 mmol/L
Concentration of random blood glucose (db/db mice; 30 nmol/kg sc, Day 0): 16.73 ± 1.59 mmol/L
Concentration of fasting blood glucose (db/db mice; 30 nmol/kg sc, Day 7): 6.21 ± 0.26 mmol/L
Concentration of random blood glucose (db/db mice; 30 nmol/kg sc, Day 10): 15.88 ± 1.86 mmol/L
Concentration of fasting blood glucose (db/db mice; 30 nmol/kg sc, Day 14): 6.40 ± 0.57 mmol/L
Concentration of random blood glucose (db/db mice; 30 nmol/kg sc, Day 17): 17.30 ± 1.17 mmol/L
Concentration of fasting blood glucose (db/db mice; 30 nmol/kg sc, Day 21): 7.03 ± 0.52 mmol/L
Concentration of random blood glucose (db/db mice; 30 nmol/kg sc, Day 24): 17.43 ± 1.92 mmol/L
Concentration of fasting blood glucose (db/db mice; 30 nmol/kg sc, Day 28): 9.68 ± 1.03 mmol/L
Glycated hemoglobin (db/db mice; 30 nmol/kg sc, day 28): 4.53 ± 0.17 %
Concentration of fasting blood glucose (db/db mice; 100 nmol/kg sc, Day 0): 14.67 ± 1.46 mmol/L
Concentration of random blood glucose (db/db mice; 100 nmol/kg sc, Day 0): 9.11 ± 1.25 mmol/L
Concentration of fasting blood glucose (db/db mice; 100 nmol/kg sc, Day 7): 5.85 ± 0.33 mmol/L
Concentration of random blood glucose (db/db mice; 100 nmol/kg sc, Day 10): 12.34 ± 1.12 mmol/L
Concentration of fasting blood glucose (db/db mice; 100 nmol/kg sc, Day 14): 6.25 ± 0.32 mmol/L
Concentration of random blood glucose (db/db mice; 100 nmol/kg sc, Day 17): 11.89 ± 1.15 mmol/L
Concentration of fasting blood glucose (db/db mice; 100 nmol/kg sc, Day 21): 6.13 ± 0.19 mmol/L
Concentration of random blood glucose (db/db mice; 100 nmol/kg sc, Day 24): 11.51 ± 0.95 mmol/L
Concentration of fasting blood glucose (db/db mice; 100 nmol/kg sc, Day 28): 7.89 ± 0.41 mmol/L
Glycated hemoglobin (db/db mice; 100 nmol/kg sc, day 28, listed as 18 #): 3.78%
Glycated hemoglobin (db/db mice; 100 nmol/kg sc, day 28, listed as #18): 3.78 ± 0.13 %
daily food intake ration (DIO mice; 3 nmol/kg sc, day 3 after administration): 2 ± 0.5 g
cumulative food intake ration (DIO mice; 3 nmol/kg, 28 days after the administration): 58.2 g
cumulative food intake ration (DIO mice; 3 nmol/kg, within 5 days after the administration): 7.2 g
daily food intake ration (DIO mice; 10 nmol/kg sc, day 9 after administration): 2 ± 0.6 g
daily food intake ration (DIO mice; 10 nmol/kg sc, day 15 after administration): 3 ± 0.9 g
daily food intake ration (DIO mice; 10 nmol/kg sc, day 20 after administration): 2 ± 0.5 g
cumulative food intake ration (DIO mice; 10 nmol/kg, 28 days after the administration): 46.8 g
cumulative food intake ration (DIO mice; 10 nmol/kg, within 5 days after the administration): 3.9 g
daily food intake ration (DIO mice; 100 nmol/kg sc, day 15 after administration): 2 ± 0.4 g
daily food intake ration (DIO mice; 100 nmol/kg sc, day 18 after administration): 2 ± 0.4 g
cumulative food intake ration (DIO mice; 100 nmol/kg, 28 days after the administration): 36.7 g
cumulative food intake ration (DIO mice; 100 nmol/kg, within 5 days after the administration): 1.8 g
rate of change in body weight (diet-induced obese mice; 3 nmol/kg sc, day 1 after administration): −5 ± 0.6%
rate of change in body weight (diet-induced obese mice; 3 nmol/kg sc, day 6 after administration): −10 ± 4.4 %
rate of change in body weight (diet-induced obese mice; 3 nmol/kg sc, day 7 after administration): −13 ± 5.3 %
viscera/brain ratio for fat mass, Epididymal fat (diet-induced obese mice; 3 nmol/kg sc): 254.6 ± 113.4 %
viscera/brain ratio for fat mass, Inguinal fat (diet-induced obese mice; 3 nmol/kg sc): 281.5 ± 140.1 %
viscera/brain ratio for fat mass, Mesenteric fat (diet-induced obese mice; 3 nmol/kg sc): 84.8 ± 41.3 %
viscera/brain ratio for fat mass, Perirenal fat (diet-induced obese mice; 3 nmol/kg sc): 159.2 ± 87.6 %
viscera/brain ratio for fat mass, Scapular fat (diet-induced obese mice; 3 nmol/kg sc): 48 ± 15.3%
viscera/brain ratio for fat mass, Subcutaneous fat (diet-induced obese mice; 3 nmol/kg sc): 120 ± 62 %
rate of change in body weight (diet-induced obese mice; 10 nmol/kg sc, day 6 after administration): −15 ± 5.3 %
rate of change in body weight (diet-induced obese mice; 10 nmol/kg sc, day 24 after administration): −26 ± 7.1 %
viscera/brain ratio for fat mass, Epididymal fat (diet-induced obese mice; 10 nmol/kg sc): 211.7 ± 80.7 %
viscera/brain ratio for fat mass, Inguinal fat (diet-induced obese mice; 10 nmol/kg sc): 194.4 ± 86.2 %
viscera/brain ratio for fat mass, Mesenteric fat (diet-induced obese mice; 10 nmol/kg sc): 53.3 ± 14.6 %
viscera/brain ratio for fat mass, Perirenal fat (diet-induced obese mice; 10 nmol/kg sc): 109.4 ± 57.1 %
viscera/brain ratio for fat mass, Scapular fat (diet-induced obese mice; 10 nmol/kg sc): 42.5 ± 17^ %
viscera/brain ratio for fat mass, Subcutaneous fat (diet-induced obese mice; 10 nmol/kg sc): 122 ± 73.2 %
rate of change in body weight (diet-induced obese mice; 100 nmol/kg sc, day 20 after administration): −39 ± 6.5 %
rate of change in body weight (diet-induced obese mice; 100 nmol/kg sc, day 23 after administration): −38 ± 5.9 %
viscera/brain ratio for fat mass, Epididymal fat (diet-induced obese mice; 100 nmol/kg sc): 102.9 ± 32.2 %
viscera/brain ratio for fat mass, Inguinal fat (diet-induced obese mice; 100 nmol/kg sc): 92 ± 34.5 %
viscera/brain ratio for fat mass, Mesenteric fat (diet-induced obese mice; 100 nmol/kg sc): 27.4 ± 11.1 %
viscera/brain ratio for fat mass, Perirenal fat (diet-induced obese mice; 100 nmol/kg sc): 46.6 ± 18.2 %
viscera/brain ratio for fat mass, Scapular fat (diet-induced obese mice; 100 nmol/kg sc): 32.3 ± 7%
viscera/brain ratio for fat mass, Subcutaneous fat (diet-induced obese mice; 100 nmol/kg sc): 57.1 ± 21.2 %
body weight reduced by (diet-induced obese mice; high-fat food-induced obese mice, 10 nmol/kg, day 27, text): more than 20.0%
